The text below walks through data of ChEMBL document CHEMBL1201862, “PubChem BioAssay data set” (2004).

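All cell lines were grown in 96-well plates and treated with compound for 48 hours. GI50 = concentration required for 50% inhibition of growth.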 Activity calls are given as the source filed them. Cut-off read from the data, not from the text of the source: active = GI50 up to about 1.1 µM and inactive = higher.

Test systems include LXFL 529; SNB-78; RXF 631; DMS-273; M19-MEL; DLD-1; XF498; KM-20L2; HOP-18.
Holding throughout (test): DTP human tumour cell line panel, 48 h

The term GI50 denotes the concentration giving 50% growth inhibition.

In the case of `O=C1c2c(nc3ccccc3c2-c2ccccc2)CN1Nc1ccccn1`, the GI50 with LXFL 529 was 51.9 µM (inactive); in the experiment on SNB-78, 11.5 µM (inactive); in the experiment on RXF 631 it was 15.8 µM (inactive); in the experiment on DMS-273 it was > 89.9 µM (inactive); in the experiment with M19-MEL, > 100 µM (inactive); in the experiment with DLD-1, > 100 µM (inactive). In addition, the GI50 with XF498 was > 100 µM (inactive).

Turning to `O=C1C2=C(c3ccccc31)C(c1ccccc1)NC(S)=N2` (configuration not stated), the GI50 in the experiment with LXFL 529 is 26.2 µM (inactive); in the experiment on RXF 631, 43.2 µM (inactive); with DMS-273, 26.9 µM (inactive); in the experiment with M19-MEL, 67.9 µM (inactive); in the experiment on KM-20L2, 42 µM (inactive); in the experiment with DLD-1, 52.6 µM (inactive). Further, the GI50 in the experiment with XF498 is 56 µM (inactive).

For `Clc1ccc2[nH]c(CCSCCc3nc4ccc(Cl)cc4[nH]3)nc2c1`, the GI50 was 6.18 µM (inactive) with LXFL 529; 22.3 µM (inactive) with HOP-18; 6.89 µM (inactive) in the experiment with RXF 631; 13.4 µM (inactive) with DMS-273; 14.4 µM (inactive) in the experiment with M19-MEL; 15.4 µM (inactive) in the experiment on DLD-1. In the experiment with XF498, the GI50 was 14.2 µM (inactive).

`COc1cc(NCC(C#N)C#N)ccc1/N=N/c1ccc(Cl)cc1`: the GI50 in the experiment on LXFL 529 is 18.3 µM (inactive); in the experiment on HOP-18, 21 µM (inactive); in the experiment with SNB-78 it was 36.7 µM (inactive); with RXF 631, 26.3 µM (inactive); in the experiment on DMS-273 it was 21.5 µM (inactive); with M19-MEL it was 19.3 µM (inactive). For the same compound, the figures for the GI50 in the experiment with KM-20L2 and with DLD-1 were 15.2 µM (inactive) and 29.4 µM (inactive), respectively.

On to `O=c1cc(-c2ccccc2)[nH]c2cc(Cl)cc(Cl)c12`, for which the GI50 was 67.8 µM (inactive) with LXFL 529; 20.8 µM (inactive) in the experiment on HOP-18; 12.3 µM (inactive) in the experiment on DMS-273; 35.5 µM (inactive) in the experiment on M19-MEL; > 100 µM (inactive) with DLD-1.

Regarding `O=C(O)C1OC(Oc2cc(O)c3c(=O)cc(-c4ccc(O)cc4)oc3c2)C(O)C(O)C1O` (configuration not stated), the GI50 with LXFL 529, in the experiment on SNB-78, in the experiment with DMS-273, in the experiment on M19-MEL, with KM-20L2 and with DLD-1 was > 100 µM (inactive) each time. The GI50 in the experiment on XF498 was 33.6 µM (inactive).

Turning to `N#CNc1nc(C(=O)Nc2ccc(Cl)cc2)cc(-c2ccccc2)n1`, the GI50 in the experiment with LXFL 529, in the experiment on HOP-18, in the experiment on SNB-78, with RXF 631, with DMS-273 and with M19-MEL was > 100 µM (inactive) each time. Moreover, the GI50 in the experiment on KM-20L2, with DLD-1 and in the experiment with XF498 was > 100 µM (inactive) throughout.

With `Nc1ccc(O)c2c1C(=O)c1c(N)ccc(O)c1C2=O`, the GI50 in the experiment with LXFL 529, in the experiment on SNB-78, in the experiment on DMS-273, in the experiment on M19-MEL, with DLD-1 and in the experiment with XF498 was > 100 µM (inactive) each time.

Regarding `O=C1CCC2(c3ccccc3)OCC([C@@H](O)c3ccccc3)N12` (some centres not stated), the GI50 in the experiment on HOP-18, in the experiment with SNB-78, in the experiment on DMS-273, in the experiment with M19-MEL, in the experiment on KM-20L2 and in the experiment with DLD-1 was > 100 µM (inactive) in each case. Moreover, in the experiment on XF498, the GI50 is > 100 µM (inactive).

For the compound `COc1ccc2nc(-c3cccs3)cc(C(O)CN3CCSCC3)c2c1` (configuration not stated), the GI50 in the experiment on LXFL 529 was 12.6 µM (inactive); in the experiment on HOP-18 it was 19.8 µM (inactive); with DMS-273, 19.5 µM (inactive); in the experiment with M19-MEL it was 22.8 µM (inactive); in the experiment on KM-20L2, 21.6 µM (inactive); in the experiment on DLD-1 it was 23.6 µM (inactive). In addition, in the experiment on XF498, the GI50 is 16.3 µM (inactive).

Consider `CC1CC(=O)C(CC(=O)O)[C@H]1C(C(=O)C(=O)Nc1cc(Cl)ccc1Cl)[N+](=O)[O-]` (some centres not stated), for which the GI50 with HOP-18, in the experiment with M19-MEL, in the experiment on KM-20L2, with DLD-1 and with XF498 was > 100 µM (inactive) in each case.

In the case of `CN(C)CCCNc1ccnc2cccc([N+](=O)[O-])c12`, the GI50 in the experiment on SNB-78 was 12.9 µM (inactive); in the experiment on KM-20L2, 11.5 µM (inactive).

`O=CC[C@H]1C(=O)C[C@@H]2CCC[C@@H]21`: the GI50 is 48 µM (inactive) in the experiment with LXFL 529, > 100 µM (inactive) in the experiment with SNB-78, 56.2 µM (inactive) with M19-MEL and > 100 µM (inactive) in the experiment on XF498.

On to `CCOc1ccccc1/N=N/c1ccc2oc(=O)c(C(C)=O)cc2c1`, for which the GI50 with LXFL 529 is > 100 µM (inactive); in the experiment with SNB-78 it was 24.4 µM (inactive); in the experiment with DMS-273, > 100 µM (inactive); in the experiment with M19-MEL it was > 100 µM (inactive); with KM-20L2, > 100 µM (inactive); with DLD-1 it was > 100 µM (inactive). Also, the GI50 with XF498 was 30.1 µM (inactive).

Regarding `CN1CC[C@@H](c2c(O)cc(O)c3c(=O)cc(-c4ccccc4Cl)oc23)[C@@H](O)C1`, the GI50 with LXFL 529 was 0.124 µM (active); with HOP-18, 0.0562 µM (active); in the experiment with SNB-78, 0.213 µM (active); in the experiment on DMS-273, 0.109 µM (active); with KM-20L2 it was 0.174 µM (active); in the experiment with DLD-1, 0.0528 µM (active). Moreover, the GI50 in the experiment on XF498 is 0.149 µM (active).

In the case of `CN(C)CC(/C(Cc1ccccc1)=N\NC(=S)NN)c1ccccc1` (configuration not stated), the GI50 in the experiment with LXFL 529, with SNB-78, in the experiment with DMS-273, in the experiment on M19-MEL, with KM-20L2 and with DLD-1 was > 100 µM (inactive) each time. Moreover, in the experiment on XF498, the GI50 is > 100 µM (inactive).

Regarding `COc1cc(O)c2c(c1O)C(=O)c1cc(C)ncc1C2=O`, the GI50 is 18.6 µM (inactive) in the experiment on LXFL 529; > 50 µM (inactive) in the experiment with HOP-18; 37.8 µM (inactive) in the experiment with SNB-78; 7.91 µM (inactive) in the experiment on M19-MEL; 17.2 µM (inactive) with KM-20L2; 16 µM (inactive) in the experiment with DLD-1. Also, the GI50 in the experiment on XF498 was 20.6 µM (inactive).

As for `COC(=O)C1CC(C(=O)OC)c2nc3cc(C)c(C)cc3nc21` (configuration not stated), the GI50 in the experiment on LXFL 529 is > 100 µM (inactive); in the experiment on HOP-18 it was 41.7 µM (inactive); in the experiment on SNB-78 it was > 100 µM (inactive); in the experiment with RXF 631, > 100 µM (inactive); in the experiment on DMS-273, > 100 µM (inactive); with M19-MEL, > 100 µM (inactive). In addition, the GI50 with KM-20L2, in the experiment on DLD-1 and in the experiment with XF498 was > 100 µM (inactive) in each case.

`Cc1cc(Cl)ccc1NC1=NC(=O)C(CC(=O)Nc2ccc(Cl)cc2Cl)S1` (configuration not stated): the GI50 in the experiment on LXFL 529, in the experiment with SNB-78, in the experiment with RXF 631, in the experiment on DMS-273, in the experiment on M19-MEL and in the experiment with KM-20L2 was > 100 µM (inactive) each time. In addition, the GI50 is > 100 µM (inactive) with DLD-1 and 38.1 µM (inactive) in the experiment on XF498.

For `COC(=O)C1=CCON(c2ccccc2)C1c1ccccc1` (configuration not stated), the GI50 with LXFL 529 was 34.7 µM (inactive); with HOP-18 it was > 100 µM (inactive); in the experiment on DMS-273, 56.5 µM (inactive); in the experiment on M19-MEL it was 62.8 µM (inactive); in the experiment with KM-20L2, 69.8 µM (inactive); in the experiment with DLD-1 it was 39.1 µM (inactive). Further, in the experiment on XF498, the GI50 was 52 µM (inactive).

As to `COc1cc2c(cc1OC)C(Cl)C(c1ccc(F)cc1)=C2Cl` (configuration not stated), the GI50 with LXFL 529 is 11.7 µM (inactive); with HOP-18, 15.2 µM (inactive); with SNB-78, 15.4 µM (inactive); in the experiment with DMS-273 it was 16.4 µM (inactive); with M19-MEL it was 16.8 µM (inactive); with KM-20L2, 14.8 µM (inactive). Further, in the experiment with DLD-1, the GI50 is 16.9 µM (inactive).

Regarding `C[N+](C)(C)CC1CCCC/C1=N\O` (configuration not stated), the GI50 in the experiment on LXFL 529, in the experiment with HOP-18, in the experiment with SNB-78, in the experiment on RXF 631, in the experiment on DMS-273 and in the experiment with KM-20L2 was > 100 µM (inactive) each time. Moreover, in the experiment on DLD-1, the GI50 is > 100 µM (inactive).
